PMC11173422, “Substitution-Induced Mechanistic Switching in SNAr-Warheads for Cysteine Proteases” (Molecules, 2024)
Read-outs that look alike come from different tables or passages of the source.

Experiments:
[1] = Parallel artificial membrane permeability assay (PAMPA); settings: pH 7.4
Method: An artificial membrane consisting of phosphatidylcholine dissolved in n-dodecane was employed to control equilibration between two connected aqueous compartments, of which one contained the compound of interest. This model for compound permeation through a cell membrane was incubated, and the resulting concentration in the acceptor compartment was quantified spectroscopically.
A general literature-known principle was used [11]. Propranolol hydrochloride was sourced from Changzou Yabang Pharmaceutical (Fagron GmbH & Co. KG). Candesartan cilexetil was sourced as a chemical reference standard from the EDQM (catalogue code Y0001388).
Incubation setup consisted of donor (top) plate (Sigma Aldrich, MAIPNTR10), 5 µL artificial membrane
(1 % (w/v) L-α-phosphatidyl choline, Sigma Aldrich P3556, in n-dodecane, Sigma Aldrich 8205430100),
transparent measurement plate (Greiner UV-Star®, 655801), Tecan Spark 10M® well plate reader, 200 µL

[2] = cited from earlier work
rhodesain = rhodesain (Trypanosoma brucei rhodesiense, UniProt Q95PM0); parameters: stably transformed with the rhodesain ΔC gene cloned into the pPICZαA vector; made in house; host or cells: Pichia pastoris X-33 (pPICZαA, secreted into the culture supernatant); method as in PMID 32210166, PMID 34378914; settings: cited from earlier work
rhodesain, sequence (Q95PM0 entry or part of it): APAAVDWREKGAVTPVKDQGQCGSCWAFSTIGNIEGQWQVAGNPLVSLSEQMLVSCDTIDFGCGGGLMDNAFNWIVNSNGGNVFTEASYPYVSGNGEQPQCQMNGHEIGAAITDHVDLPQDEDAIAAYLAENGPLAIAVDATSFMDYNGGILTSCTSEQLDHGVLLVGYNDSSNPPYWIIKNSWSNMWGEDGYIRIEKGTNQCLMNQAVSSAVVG

Rhodesain (TbCatL) = target: T1, Rhodesain (TbCatL) (Trypanosoma brucei rhodesiense, UniProt Q95PM0); settings: lead compound, published data ref 17; cited from earlier work
T1 construct: stably transformed with the rhodesain ΔC gene cloned into the pPICZαA vector; made in house; host or cells: Pichia pastoris X-33 (pPICZαA, secreted into the culture supernatant)
T1 sequence (Q95PM0 entry or part of it): as above

Trypanosoma brucei = tested on: Trypanosoma brucei; parameters: method as in PMID 32210166; settings: cell cultures, free acid; cited from earlier work
[3] = Aqueous solubility observed in PAMPA set-up; assay type: physicochemical; settings: buffered aqueous solution pH 7.4, 5% DMSO
Method: acceptor (bottom) plate (Greiner, 655074). Measurement setup for direct spectroscopy consisted of UV- […]
sample volume, λ = 200–650 nm. […]
elution (0.7 mL/min). Injection volume was 100 µL. Areas of peaks in the chromatogram (detection-λ = 210 nm) were used to calculate the AUCs. Retention time and mass spectrum recorded in positive ionization mode were used to assign species. Analysis was performed using MestreNova. […]
donor plate. This was sealed (Greiner, 676070, Viewseal sealer). 400 µL of acceptor solution was applied to the acceptor plate. Incubation setup was assembled and left for 7 h. After this time, acceptor and reference solutions were analyzed.
The acceptor solutions of those were measured
P௔௣௣ = −(௏ವ ା௏ಲ )∗஺∗௧ eq. 6

## CCOc1nc2cccc(C(=O)OC(C)OC(=O)OC3CCCCC3)c2n1Cc1ccc(-c2ccccc2-c2nnn[nH]2)cc1 (stereo not drawn) [Candesartan cilexetil, reference compound]
[1]
  Papp at 7 h, 100 µM: 1.3 ± 0.2 ×10⁻⁶ cm/s
[2]; literature value ref 37
  Lit. Papp: 0.6 [37] ×10^−6 cm/s

## CC(C)C[C@H](NC(=O)[C@H](Cc1ccccc1)Nc1cc([N+](=O)[O-])c([N+](=O)[O-])cc1F)C(=O)O [Compound I]
rhodesain
  Adduct with rhodesain in MALDI-TOF-MS: no adduct could be detected
Rhodesain (TbCatL)
  Ki: 0.004 ± 0.0013 µM
Trypanosoma brucei
  EC50: 20 µM

## CC(C)NCC(O)COc1cccc2ccccc12 (stereo not drawn) [Propranolol, reference compound]
[1]
  Papp at 7 h, 100 µM: 9.9 ± 1 ×10⁻⁶ cm/s
[2]; literature value ref 35, 36
  Lit. Papp: 8–14 [35, 36] ×10^−6 cm/s

## CC(C)C[C@H](NC(=O)[C@H](Cc1ccccc1)Nc1cc(F)c([N+](=O)[O-])cc1[N+](=O)[O-])C(=O)OC(C)(C)C [Compound 21]
[3]
  aqueous solubility: poor aqueous solubility
[1]
  Papp at 7 h, 100 µM: 3.4 ± 1.8 ×10⁻⁶ cm/s
